{"source": "ChEMBL document CHEMBL4052590", "about": "“Anti-Osteoporotic Activity of Harpagoside by Upregulation of the BMP2 and Wnt Signaling Pathways in Osteoblasts and Suppression of Differentiation in Osteoclasts” (J Nat Prod, 2017)", "key": {"Mus musculus [1]": {"tested_on": "Mus musculus", "test": "Effect on calcium level in serum of OVX-induced bone loss ICR mouse model at 10 ug/kg, po via gavage for 12 weeks by ELISA (reference value: 9.3 +/- 0.3 mg/dl)", "type": "functional"}, "Mus musculus [2]": {"tested_on": "Mus musculus", "test": "Effect on […] level in serum of OVX-induced bone loss ICR mouse model at 10 ug/kg, po via gavage for 12 weeks by ELISA (reference value: 8.2 +/- 0.4 mg/dl)", "type": "functional"}, "Mus musculus [3]": {"tested_on": "Mus musculus", "test": "Effect on alkaline phosphatase activity in serum of OVX-induced bone loss ICR mouse model at 10 ug/kg, po via gavage for 12 weeks using p-NPP as substrate (reference value: 84.9 +/- 4.2 U/L)", "type": "functional"}, "Mus musculus [4]": {"tested_on": "Mus musculus", "test": "Effect on TRAP activity in serum of OVX-induced bone loss ICR mouse model at 10 ug/kg, po via gavage for 12 weeks (reference value: 19.8 +/- 1.0 U/L)", "type": "functional"}, "Mus musculus [5]": {"tested_on": "Mus musculus", "test": "Effect on osteocalcin level in serum of OVX-induced bone loss ICR mouse model at 10 ug/kg, po via gavage for 12 weeks by ELISA (reference value: 176.9 +/- 4.7 ng/ml)", "type": "functional"}, "Mus musculus [6]": {"tested_on": "Mus musculus", "test": "Effect on C-terminal telopeptide level in serum of OVX-induced bone loss ICR mouse model at 10 ug/kg, po via gavage for 12 weeks by ELISA (reference value: 95.7 +/- 3.8 ng/ml)", "type": "functional"}, "Mus musculus [7]": {"tested_on": "Mus musculus", "test": "Anti-osteoporotic activity in OVX-induced bone loss ICR mouse model assessed as decrease in trabecular bone destruction in femur at 10 ug/kg, po administered for 12 weeks via gavage by microcomputed tomography", "type": "functional, organism-based"}}, "note": "Calls of active or inactive are those of the source. The calls are words filed in the database; no cut-off is given here."}
{"smiles": "C[C@]12CC[C@@H]3c4ccc(O)cc4CC[C@H]3[C@@H]1CC[C@@H]2O", "note": "[ESTRADIOL]", "values": [{"measurement": "Activity", "setting": "Mus musculus [1]", "result": 9.1, "unit": "mg/dL"}, {"measurement": "Activity", "setting": "Mus musculus [2]", "result": 7.9, "unit": "mg/dL"}, {"measurement": "Activity", "setting": "Mus musculus [3]", "result": 59.9, "unit": "U/L"}, {"measurement": "Activity", "setting": "Mus musculus [4]", "result": 10.8, "unit": "U/L"}, {"measurement": "Activity", "setting": "Mus musculus [5]", "result": 141.9, "unit": "ng/mL"}, {"measurement": "Activity", "setting": "Mus musculus [6]", "result": 76.6, "unit": "ng/mL"}, {"measurement": "Activity", "setting": "Mus musculus [7]", "result": "Active"}]}
